Where “and” joins values, the source holds several entries; their conditions need not be identical. Equal values may be shown once.
Key:
[1] = test system: prostate cancer cells (DU145, PC3) relative to other cancer cell lines; experiment: Prostate cancer cell selectivity across the panel of human cancer cell lines; assay type: cell-based; conditions: prostate lines versus other cancer cell lines, 48 h
Text: (§1) We screened the compounds against a panel of human cancer cell lines derived from a number of tissues. These were breast (MCF-7, BT549, SKBr3, MDA-MB-231), lung (A549), cervix (HeLa), and prostate (DU145, PC3) cancer cell lines. […] In some cases, the IC50 values were much lower than values reported for ET-18-OCH3, indicative of a greater degree of potency of these new compounds. The most striking observation is that the greatest inhibition of cell growth was found when the two prostate cell lines, DU145 and PC3, were treated with these compounds. […] Because hormone-insensitive prostate cancer cells are highly sensitive to the active compounds described herein, (compounds I, II, and III), we postulate that it may be possible to selectively kill prostate cancer cells with low concentrations without harming other cells in the body. The prostate selectivity observed with compound I was also observed with compounds II and III (Table 1 and FIGS. 3 and 4) and distinguishes these compounds from other antitumor compounds.

SK-N-MC cells = conditions: read-out: IC50, antiproliferative effect, SK-N-MC (neuronal); proliferating cells, 0-20 μM, 48 h, CyQuant assay
Method: (§2) Specifically, proliferating cells in 48-well plates were incubated with 0-20 μM of the compound for 48 hours. The cell numbers present were determined by the CyQuant™ assay (Invitrogen), and the increase in numbers were expressed relative to the controls receiving only the vehicle (0.1% ethanol).
(§3) Proliferating cells in 48-well plates were incubated with 0-20 μM of the compound for 48 h. The cell numbers present were determined by the CyQuant™ assay (Invitrogen), and the increase in numbers were expressed relative to the controls receiving only the vehicle (0.1% ethanol).

HepG2 cells = conditions: read-out: IC50, antiproliferative effect, HepG2 (liver); proliferating cells, 0-20 μM, 48 h, CyQuant assay
Method: as §2, §3

SK-N-SH cells = conditions: read-out: IC50, antiproliferative effect, SK-N-SH (neuronal); proliferating cells, 0-20 μM, 48 h, CyQuant assay
Method: as §2, §3

DU145 cells [2] = experiment: Antiproliferative evaluation, CyQuant assay, DU145; assay type: cell-based, human; conditions: exponentially growing cells, 48 h incubation, read-out: IC50, growth inhibition, DU145, prostate
Method: (§4) FIG. 2 is a graphical depiction of the results of an antiproliferative evaluation of compound I against the following cancer cell lines: DU145, PC3, BT549, HeLa, MDA-MB-231, A549, and MCF-7. Cells growing exponentially in 48-well plates were incubated with different concentrations of compound I for 48 h. The increases in cell numbers were determined by the CyQuant assay and are expressed as a percentage of the increase in control wells with the vehicle (0.1% ethanol). The results are the average+SD from six different wells.
as §4, with “FIG. 3” for “FIG. 2”, “compound II” for “compound I”
as §4, with “FIG. 4” for “FIG. 2”, “compound III” for “compound I”
as §4, with “FIG. 5” for “FIG. 2”, “compound IV” for “compound I”
as §4, with “FIG. 6” for “FIG. 2”, “compound V” for “compound I”
(§5) We screened the compounds against a panel of human cancer cell lines derived from a number of tissues. […]

A549 cells = experiment: Antiproliferative evaluation, CyQuant assay, A549; assay type: cell-based, human; conditions: exponentially growing cells, 48 h incubation, read-out: IC50, growth inhibition, A549, lung
Method: as §4
as §4, with “FIG. 3” for “FIG. 2”, “compound II” for “compound I”
as §4, with “FIG. 4” for “FIG. 2”, “compound III” for “compound I”
as §4, with “FIG. 5” for “FIG. 2”, “compound IV” for “compound I”
as §4, with “FIG. 6” for “FIG. 2”, “compound V” for “compound I”, “wells. […]” for “wells.”

MCF-7 cells = experiment: Antiproliferative evaluation, CyQuant assay, MCF-7; assay type: cell-based, human; conditions: exponentially growing cells, 48 h incubation, read-out: IC50, growth inhibition, MCF-7, breast
Method: as §4
as §4, with “FIG. 3” for “FIG. 2”, “compound II” for “compound I”
as §4, with “FIG. 4” for “FIG. 2”, “compound III” for “compound I”
as §4, with “FIG. 5” for “FIG. 2”, “compound IV” for “compound I”
as §4, with “FIG. 6” for “FIG. 2”, “compound V” for “compound I”, “wells. […]” for “wells.”

PC3 cells = experiment: Antiproliferative evaluation, CyQuant assay, PC3; assay type: cell-based, human; conditions: exponentially growing cells, 48 h incubation, read-out: IC50, growth inhibition, PC3, prostate
Method: as §4
as §4, with “FIG. 3” for “FIG. 2”, “compound II” for “compound I”
as §4, with “FIG. 4” for “FIG. 2”, “compound III” for “compound I”
as §4, with “FIG. 5” for “FIG. 2”, “compound IV” for “compound I”
as §4, with “FIG. 6” for “FIG. 2”, “compound V” for “compound I”
as §5

HeLa cells = experiment: Antiproliferative evaluation, CyQuant assay, HeLa; assay type: cell-based, human; conditions: exponentially growing cells, 48 h incubation, read-out: IC50, growth inhibition, HeLa, cervix
Method: as §4
as §4, with “FIG. 3” for “FIG. 2”, “compound II” for “compound I”, “ethanol). […]” for “ethanol). The results are the average+SD from six different wells.”
(§6) FIG. 4 is a graphical depiction of the results of an antiproliferative evaluation of compound III against the following cancer cell lines: DU145, PC3, BT549, HeLa, MDA-MB-231, A549, and MCF-7. […] The increases in cell numbers were determined by the CyQuant assay and are expressed as a percentage of the increase in control wells with the vehicle (0.1% ethanol). […]
as §6, with “FIG. 5” for “FIG. 4”, “compound IV” for “compound III”
as §6, with “FIG. 6” for “FIG. 4”, “compound V” for “compound III”

DU145 cells [3] = experiment: Toxicity (loss of viability) to DU145 cells; assay type: cell-based, human
Text: as §1

MDA-MB-231 cells = experiment: Antiproliferative evaluation, CyQuant assay, MDA-MB-231; assay type: cell-based, human; conditions: exponentially growing cells, 48 h incubation, read-out: IC50, growth inhibition, MDA-MB-231, breast
Method: as §4
as §4, with “FIG. 3” for “FIG. 2”, “compound II” for “compound I”, “ethanol). […]” for “ethanol). The results are the average+SD from six different wells.”
as §6
as §6, with “FIG. 5” for “FIG. 4”, “compound IV” for “compound III”
as §6, with “FIG. 6” for “FIG. 4”, “compound V” for “compound III”

BT549 cells = experiment: Antiproliferative evaluation, CyQuant assay, BT549; assay type: cell-based, human; conditions: exponentially growing cells, 48 h incubation, read-out: IC50, growth inhibition, BT549, breast
Method: as §4
as §4, with “FIG. 3” for “FIG. 2”, “compound II” for “compound I”, “ethanol). […]” for “ethanol). The results are the average+SD from six different wells.”
as §6
as §6, with “FIG. 5” for “FIG. 4”, “compound IV” for “compound III”
as §6, with “FIG. 6” for “FIG. 4”, “compound V” for “compound III”

Row | Molecule | prostate cancer cell selectivity [1] | IC50 (SK-N-MC cells) | IC50 (HepG2 cells) | IC50 (SK-N-SH cells) | IC50 (DU145 cells [2]) | IC50 (A549 cells) | IC50 (MCF-7 cells) | IC50 (PC3 cells) | IC50 (HeLa cells) | concentration toxic to the cells (loss of viability) (DU145 cells [3]) | IC50 (MDA-MB-231 cells) | IC50 (BT549 cells)
1 | 1-O-(7-N, N-dimethylamino-3-pentadecanoyl-1-napthyl)-2-O-methyl-sn-glycero-3-phosphocholine | highly selective for prostate cancer cells | > 20 µM | > 20 µM | < 20 µM | 3.5 µM | > 20 µM | > 20 µM | 1.9 µM |  |  |  | 
2 | CCCCCCCCCCCCCCCCOC[C@@H](CCP(=O)([O-])OCC[N+](C)(C)C)OC(=O)NC [Compound I, 2′-(trimethylammonio)ethyl 4-hexadecyloxy-3(R)—N-methylcarbamoyl-1-butanephosphonate] |  |  |  |  | 1 µM and 1.2 µM | 10.7 µM | 4 µM | 1.2 µM | 3.3 µM | 2.5 µM | 3.7 µM | 4.4 µM
3 | CCCCCCCCCCCCCCCCOC[C@H](CCP(=O)([O-])OCC[N+](C)(C)C)OC(=O)NC [Compound II, 2′-(trimethylammonio)ethyl 4-hexadecyloxy-3(S)—N-methylcarbamoyl-1-butane-phosphonate] |  |  |  |  | 2.1 µM | > 20 µM | 10.1 µM | 2.5 µM | 7.9 µM |  | 6.1 µM | 6.8 µM
4 | CCCCCCCCCCCCCCCCOC[C@@H](COP(=O)([O-])OCC[N+](C)(C)C)NC(=O)OC [Compound III, 2′-(trimethylammonio)ethyl 2(S)—(N-methoxycarbonylamido)-3-hexadecyloxypropanephosphate] | greatest prostate cancer cell selectivity |  |  |  | 2.4 µM | > 20 µM | 9.1 µM | 1.9 µM | 19.3 µM |  | 10.5 µM | 13.4 µM
